Experiment [1] has as its target T1, MetRS (T. brucei) (Trypanosoma brucei brucei, UniProt Q38C91).
T1 sequence (Q38C91 1-773): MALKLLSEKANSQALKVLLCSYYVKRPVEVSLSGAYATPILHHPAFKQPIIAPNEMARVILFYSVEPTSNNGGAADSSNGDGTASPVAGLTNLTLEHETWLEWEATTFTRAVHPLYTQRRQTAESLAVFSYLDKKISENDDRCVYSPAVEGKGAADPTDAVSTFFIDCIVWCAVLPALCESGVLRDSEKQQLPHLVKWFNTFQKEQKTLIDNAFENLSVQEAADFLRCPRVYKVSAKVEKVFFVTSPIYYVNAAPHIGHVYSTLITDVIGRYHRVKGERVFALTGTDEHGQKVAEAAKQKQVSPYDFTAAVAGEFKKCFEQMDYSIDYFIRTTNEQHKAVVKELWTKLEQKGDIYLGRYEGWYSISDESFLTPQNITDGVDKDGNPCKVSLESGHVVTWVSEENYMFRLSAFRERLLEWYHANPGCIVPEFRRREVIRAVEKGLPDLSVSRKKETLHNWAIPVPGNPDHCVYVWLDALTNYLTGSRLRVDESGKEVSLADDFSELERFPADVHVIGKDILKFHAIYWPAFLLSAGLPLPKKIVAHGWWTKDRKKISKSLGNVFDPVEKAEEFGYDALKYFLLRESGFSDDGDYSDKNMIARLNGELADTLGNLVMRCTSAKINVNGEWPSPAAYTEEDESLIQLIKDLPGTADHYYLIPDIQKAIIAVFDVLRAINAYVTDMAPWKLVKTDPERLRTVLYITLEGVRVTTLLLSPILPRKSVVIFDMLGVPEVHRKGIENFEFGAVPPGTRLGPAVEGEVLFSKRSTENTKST
Kind of experiment: MetRS (T. brucei) enzyme inhibition. The format is biochemical.

In experiment [2] the test system is T. brucei. Briefly: T. brucei growth inhibition. The conditions noted are these: Trypanosoma brucei; read-out: (D) T. brucei EC50. The format is cell-based, Trypanosoma brucei.
For experiment [3], the target named is MetRS (C. parvum) (Cryptosporidium parvum, UniProt Q5CVN0). Briefly: MetRS (C. parvum) enzyme inhibition. The conditions noted are these: read-out: (C) MetRS (C. parvum) IC50. The format is biochemical.
In experiment [4] the test system is S. aureus MSSA (ATCC 29213). Briefly: MIC susceptibility testing. Type of experiment: cell-based, Staphylococcus aureus. The conditions noted are these: S. aureus ATCC 29213; for MIC: Staphylococcus aureus, read-out: (F) S. aureus (ATCC 29213) MIC. The text has this:
Media and culture conditions. Mueller Hinton broth (MHB), cation adjusted Mueller Hinton broth (CA-MHB), and Brain Heart Infusion broth (BHI) were purchased from Becton Dickinson (Franklin Lakes, N.J.). Tryptic soy agar (TSA) plates, TSA with 5% sheep blood plates, and CA-MHB with 3% laked horse blood were purchased from Remel (San Diego, Calif.). MHB was used to assay all Staphylococcus aureus strains. CA-MHB was used for Staphylococcus epidermidis, Enterococcus faecalis, Enterococcus faecium, Escherichia coli, and Pseudomonas aeruginosa. CA-MHB supplemented with 3% laked horse blood was used for Streptococcus pneumoniae and Streptococcus pyogenes. Staphylococcus, Enterococcus, Escherichia, and Pseudomonas strains were cultured at 37° C. with ambient air. Streptococcus strains were cultured in 37° C. with 5% CO2. Separate conditions for radiolabeled precursor uptake assays are described below.
Susceptibility testing: Minimum inhibitory concentration (MIC) determinations were performed in triplicate in 96-well round bottom microtiter plates (Corning, Corning N.Y.) as described by the Clinical and Laboratory Standards Institute (CLSI). Serial two-fold dilutions of compounds were added to plates in 50 μL volumes. An additional 50 μL of media containing bacterial cells (1×10^6 CFUs/mL) was then added to each well. Maximum DMSO concentrations were 0.5%. Plates were incubated at 37° C. for at least 18 h before reading the susceptibility result by optical absorbance (OD600) using a BioTek ELx800. The lowest concentration causing ≥90% growth inhibition compared to the untreated control was recorded as the MIC (and also corresponded to the visual MIC). MICs were measured at least twice and the higher value (if different) was recorded herein.

In experiment [5] the test system is T. cruzi. Kind of experiment: T. cruzi growth inhibition. The format is cell-based, Trypanosoma cruzi. The conditions noted are these: read-out: (E) T. cruzi EC50.

Molecules are shown by their SMILES. In brackets after ≈: the same amount, converted by molar mass. Where two headings read alike, the source gives them in different places.

Broadly, the IC50 is the concentration at which inhibition is half-maximal. Usually EC50 stands for the concentration needed to bring the measured effect to its halfway point. In general, MIC refers to the lowest concentration that inhibits growth of the organism.

Sequence of MetRS (C. parvum) (Q5CVN0 entry or part of it): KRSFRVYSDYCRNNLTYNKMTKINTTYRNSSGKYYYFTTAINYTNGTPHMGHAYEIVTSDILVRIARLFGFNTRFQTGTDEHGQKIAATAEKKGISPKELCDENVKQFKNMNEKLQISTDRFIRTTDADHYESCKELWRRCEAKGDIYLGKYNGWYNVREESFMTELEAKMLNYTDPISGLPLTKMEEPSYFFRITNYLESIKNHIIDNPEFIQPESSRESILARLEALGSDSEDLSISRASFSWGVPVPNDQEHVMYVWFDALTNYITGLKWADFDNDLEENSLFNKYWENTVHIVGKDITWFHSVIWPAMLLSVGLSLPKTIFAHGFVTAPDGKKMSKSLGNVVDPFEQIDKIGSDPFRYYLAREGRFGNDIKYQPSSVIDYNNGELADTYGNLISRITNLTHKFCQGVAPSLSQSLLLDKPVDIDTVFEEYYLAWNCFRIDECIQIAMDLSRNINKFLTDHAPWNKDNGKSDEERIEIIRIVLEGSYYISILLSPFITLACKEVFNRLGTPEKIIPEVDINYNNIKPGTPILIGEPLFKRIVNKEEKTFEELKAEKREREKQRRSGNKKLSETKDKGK

Turning to `CSc1ncc(Cc2ccc(Cl)cc2Cl)n1Cc1nc2nc(Cl)ccc2[nH]1` [Compound 2113, 1-({5-chloro-1H-imidazo[4,5-b]pyridin-2-yl}methyl)-5-[(2,4-dichlorophenyl)methyl]-2-(methylsulfanyl)-1H-imidazole], the IC50 was 2000 nM in experiment [1] and > 1000 nM in experiment [3]. Moreover, in experiment [2], the EC50 is 1930 nM.
In the case of `CCn1c(Cc2ccc(Cl)cc2Cl)cn(CCc2nc3ccc(F)nc3[nH]2)c1=O` [Compound 2121, 4-[(2,4-dichlorophenyl)methyl]-3-ethyl-1-(2-{5-fluoro-1H-imidazo[4,5-b]pyridin-2-yl}ethyl)-2,3-dihydro-1H-imidazol-2-one], the IC50 in experiment [1] came out at 41 nM; in experiment [3] it was 476 nM. Also, the EC50 in experiment [2] was 1340 nM.
Taken in the same sequence, the figures for `FC(F)(F)c1ccc(-c2cccc3nc(Cc4nc5nc(Cl)ccc5[nH]4)cn23)c(Cl)c1` [Compound 2126, 2-({5-chloro-1H-imidazo[4,5-b]pyridin-2-yl}methyl)-5-[2-chloro-4-(trifluoromethyl)phenyl]imidazo[1,2-a]pyridine] were 40 nM, > 1000 nM and 1780 nM.
With `Fc1ccc2[nH]c(Cc3cn4c(-c5ccc(C(F)(F)F)cc5Cl)cccc4n3)nc2n1` [Compound 2127, 5-[2-chloro-4-(trifluoromethyl)phenyl]-2-({5-fluoro-1H-imidazo[4,5-b]pyridin-2-yl}methyl)imidazo[1,2-a]pyridine], the figures for the IC50 in experiment [1] and in experiment [3] were 63 nM and > 1000 nM, respectively. In addition, the EC50 in experiment [2] was > 2000 nM.
Turning to `COc1ccc(Cc2cn(Cc3nc4nc(F)ccc4[nH]3)c(=O)n2CC(F)F)c(Cl)c1` [Compound 2259, 4-[(2-chloro-4-methoxyphenyl)methyl]-3-(2,2-difluoroethyl)-1-({5-fluoro-1H-imidazo[4,5-b]pyridin-2-yl}methyl)-2,3-dihydro-1H-imidazol-2-one], in experiment [4], the MIC was 0.422 µg/mL (≈ 0.934 µM). Besides, the EC50 is 32.2 nM in experiment [5] (Trypanosoma cruzi) and 41.4 nM in experiment [5].
For the compound `COc1cc(Cl)c(-c2cccc3nc(Nc4nc5nc(F)ccc5[nH]4)cn23)cc1OC` [Compound 2267, 5-(2-chloro-4,5-dimethoxyphenyl)—N-{5-fluoro-1H-imidazo[4,5-b]pyridin-2-yl}imidazo[1,2-a]pyridin-2-amine], the minimum inhibitory concentration (MIC) in experiment [4] was > 2 µg/mL. Besides, the concentration for a half-maximal effect (EC50) in experiment [2] was > 2000 nM.
Take `Oc1cc(-c2cccc3nc(Cc4nc5nc(Cl)ccc5[nH]4)cn23)c(Cl)cc1Cl` [Compound 2268, 2,4-dichloro-5-[2-({5-chloro-1H-imidazo[4,5-b]pyridin-2-yl}methyl)imidazo[1,2-a]pyridin-5-yl]phenol]: in experiment [4], the “(F) S. aureus (ATCC 29213) MIC” value worked out at 0.345 µg/mL and the minimum inhibitory concentration (MIC) came out at 0.69 µg/mL (≈ 1.55 µM). In experiment [2], the half-maximal effective concentration (EC50) stood at 186 nM.
With `CCOc1cc(-c2cccc3nc(Cc4nc5nc(Cl)ccc5[nH]4)cn23)c(Cl)cc1Cl` [Compound 2269, 2-({5-chloro-1H-imidazo[4,5-b]pyridin-2-yl}methyl)-5-(2,4-dichloro-5-ethoxyphenyl)imidazo[1,2-a]pyridine], in experiment [4], the “(F) S. aureus (ATCC 29213) MIC” value amounted to 1.44 µg/mL and the minimum inhibitory concentration (MIC) was determined as 1.77 µg/mL (≈ 3.74 µM). Also, the half-maximal effective concentration (EC50) in experiment [2] came to 102 nM.
Take `CCn1c(Cc2cc(OC)c(OC)cc2Cl)cn(Cc2nc3nc(Cl)ccc3[nH]2)c1=O` [Compound 2275, 1-({5-chloro-1H-imidazo[4,5-b]pyridin-2-yl}methyl)-4-[(2-chloro-4,5-dimethoxyphenyl)methyl]-3-ethyl-2,3-dihydro-1H-imidazol-2-one]: the EC50 in experiment [2] was < 0.91 nM.
The same measure, in the same setting: the figure for `CCn1c(Cc2ccc(OC)cc2Cl)cn(Cc2nc3cnc(Cl)nc3[nH]2)c1=O` [Compound 2286, 4-[(2-chloro-4-methoxyphenyl)methyl]-1-[(2-chloro-7H-purin-8-yl)methyl]-3-ethyl-2,3-dihydro-1H-imidazol-2-one] is > 2000 nM.

The record behind these values is patent US11584744B2 (UNIVERSITY OF WASHINGTON, priority 2017, dated 2023).
